# Biological target: T1, human orexin type 2 receptor (Homo sapiens, UniProt O43614)
# T1 construct: expressed in transfected cells
# T1 sequence (O43614 1-444): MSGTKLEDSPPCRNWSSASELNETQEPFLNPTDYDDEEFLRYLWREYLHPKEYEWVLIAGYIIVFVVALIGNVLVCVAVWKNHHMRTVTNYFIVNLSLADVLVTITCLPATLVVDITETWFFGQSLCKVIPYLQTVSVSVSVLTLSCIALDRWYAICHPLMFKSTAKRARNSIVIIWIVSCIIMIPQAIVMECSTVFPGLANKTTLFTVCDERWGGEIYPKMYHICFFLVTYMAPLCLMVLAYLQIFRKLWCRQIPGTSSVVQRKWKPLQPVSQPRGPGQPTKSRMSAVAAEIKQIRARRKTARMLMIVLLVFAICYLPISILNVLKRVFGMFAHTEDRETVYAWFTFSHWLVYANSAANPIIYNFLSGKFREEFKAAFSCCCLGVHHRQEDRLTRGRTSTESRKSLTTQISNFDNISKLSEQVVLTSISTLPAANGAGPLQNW
# Assay: Measurement of orexin type 2 receptor agonist activity (calcium fluorescence, Fluo-4 AM, CHO cells forcibly expressing human OX2 receptor)
# Assay type: cell-based
# Conditions: test compound 3 μM, DMSO = 0%, orexin A (human) 10 nM = 100%
# Source text: To obtain a cell clone stably expressing human orexin type 2 receptor, human orexin type 2 receptor cDNA was inserted into pcDNA3.1(+) plasmid vector (Invitrogen), and a plasmid DNA for expression of human orexin type 2 receptor (pcDNA3.1(+)/hOX2R) was cloned. The plasmid DNA was introduced into CHO-dhfr cell by an electroporation method, and human orexin type 2 receptor expressing clone cells were obtained by limiting dilution method by using G418 drug resistance as a selection marker.
# CHO cells forcibly expressing human OX2 receptor were seeded in each well of 384 well black transparent bottom plate (BD Falcon) at 7,500 cells/well, and cultured for one day in a 5% CO2 incubator at 37° C. After removal of the medium in the cell plate, assay buffer A containing a calcium indicator (HBSS (Thermo Fisher Scientific), 20 mM HEPES (Thermo Fisher Scientific), 0.1% BSA (Sigma-Aldrich), 2.5 μg/mL Fluo-4 AM (DOJINDO Chemical), 0.08% Pluronic F127 (DOJINDO Chemical), 1.25 mM probenecid (DOJINDO Chemical)) was added at 30 μL/well. The plate was stood for 30 min in a 5% CO2 incubator at 37° C., and further stood at room temperature for 30 min. A test compound prepared by diluting with assay buffer B (HBSS, 20 mM HEPES, 0.1% BSA) was added at 10 μL/well, and the fluorescence value was measured by FDSSpCELL (Hamamatsu Photonics K. K.) every one sec for 1 min, and thereafter every two sec for 1 min 40 sec. The activity (%) of the test compound was calculated assuming that variation in the fluorescence value when DMSO was added instead of the test compound was 0%, and variation in the fluorescence value when orexin A (human) (PEPTIDE INSTITUTE, INC.) was added at the final concentration of 10 nM was 100%.
row,SMILES,"OX2R agonist activity (3 μM, %)"
1,"Cc1cc2n(n1)C(CO[C@H]1CC[C@@H](c3ccccc3)CC1)C(NS(C)(=O)=O)CC2 (mixture of isomers) [Example 1, rac-N-[(6S,7R)-2-methyl-7-({[(1s,4S)-4-phenylcyclohexyl]oxy}methyl)-4,5,6,7-tetrahydropyrazolo[1,5-a]pyridin-6-yl]methanesulfonamide]",104%
2,"CCc1cc2n(n1)C(CO[C@H]1CC[C@@H](c3ccccc3)CC1)C(NS(C)(=O)=O)CC2 (mixture of isomers) [Example 2, rac-N-[(6S,7R)-2-ethyl-7-({[(1s,4S)-4-phenylcyclohexyl]oxy}methyl)-4,5,6,7-tetrahydropyrazolo[1,5-a]pyridin-6-yl]methanesulfonamide]",107%
3,"Cc1cc2n(n1)[C@@H](COC1CCN(c3ncccn3)CC1)[C@@H](NS(C)(=O)=O)CC2 (racemic) [Example 3, rac-N-[(6S,7R)-2-methyl-7-({[1-(pyrimidin-2-yl)piperidin-4-yl]oxy}methyl)-4,5,6,7-tetrahydropyrazolo[1,5-a]pyridin-6-yl]methanesulfonamide]",82%
4,"Cc1cc2n(n1)[C@@H](COC1CCN(c3ncc(F)cn3)CC1)[C@@H](NS(C)(=O)=O)CC2 (racemic) [Example 4, rac-N-[(6S,7R)-7-({[1-(5-fluoropyrimidin-2-yl)piperidin-4-yl]oxy}methyl)-2-methyl-4,5,6,7-tetrahydropyrazolo[1,5-a]pyridin-6-yl]methanesulfonamide]",98%
5,"Cc1nc2n(n1)C(CO[C@H]1CC[C@@H](c3ccccc3)CC1)C(NS(C)(=O)=O)CC2 (mixture of isomers) [Example 5, rac-N-[(5R,6S)-2-methyl-5-({[(1s,4S)-4-phenylcyclohexyl]oxy}methyl)-5,6,7,8-tetrahydro[1,2,4]triazolo[1,5-a]pyridin-6-yl]methanesulfonamide]",99%
6,"CS(=O)(=O)NC1CCc2ncnn2C1CO[C@H]1CC[C@@H](c2ccccc2)CC1 (mixture of isomers) [Example 6, rac-N-[(5R,6S)-5-({[(1s,4S)-4-phenylcyclohexyl]oxy}methyl)-5,6,7,8-tetrahydro[1,2,4]triazolo[1,5-a]pyridin-6-yl]methanesulfonamide]",85%
7,"Cc1cc2n(n1)[C@@H](Cc1cccc(-c3ccccc3)c1)[C@@H](NS(C)(=O)=O)CC2 (racemic) [Example 7, rac-N-{(6S,7S)-7-[([1,1′-biphenyl]-3-yl)methyl]-2-methyl-4,5,6,7-tetrahydropyrazolo[1,5-a]pyridin-6-yl}methanesulfonamide]",77%
8,"CCc1cc2n(n1)[C@@H](Cc1cccc(-c3ccccc3)c1)[C@@H](NS(C)(=O)=O)CC2 (racemic) [Example 8, rac-N-{(6S,7S)-7-[([1,1′-biphenyl]-3-yl)methyl]-2-ethyl-4,5,6,7-tetrahydropyrazolo[1,5-a]pyridin-6-yl}methanesulfonamide]",92%
9,"CS(=O)(=O)N[C@H]1CCc2ccnn2[C@H]1COC1CCN(c2ncc(F)cn2)CC1 (racemic) [Example 9, rac-N-[(6S,7R)-7-({[1-(5-fluoropyrimidin-2-yl)piperidin-4-yl]oxy}methyl)-4,5,6,7-tetrahydropyrazolo[1,5-a]pyridin-6-yl]methanesulfonamide]",85%
10,"Cc1nnn2c1CC[C@H](NS(C)(=O)=O)[C@@H]2COC1CCN(c2ncc(F)cn2)CC1 (racemic) [Example 10, rac-N-[(6S,7R)-7-({[1-(5-fluoropyrimidin-2-yl)piperidin-4-yl]oxy}methyl)-3-methyl-4,5,6,7-tetrahydro[1,2,3]triazolo[1,5-a]pyridin-6-yl]methanesulfonamide]",69%
11,"Cc1nn2c(c1C)CC[C@H](NS(C)(=O)=O)[C@@H]2COC1CCN(c2ncc(F)cn2)CC1 (racemic) [Example 12, rac-N-[(6S,7R)-7-({[1-(5-fluoropyrimidin-2-yl)piperidin-4-yl]oxy}methyl)-2,3-dimethyl-4,5,6,7-tetrahydropyrazolo[1,5-a]pyridin-6-yl]methanesulfonamide]",102%
12,"Cc1nn2c(c1Cl)CC[C@H](NS(C)(=O)=O)[C@@H]2COC1CCN(c2ncc(F)cn2)CC1 (racemic) [Example 15, rac-N-[(6S,7R)-3-chloro-7-({[1-(5-fluoropyrimidin-2-yl)piperidin-4-yl]oxy}methyl)-2-methyl-4,5,6,7-tetrahydropyrazolo[1,5-a]pyridin-6-yl]methanesulfonamide]",91%
13,"CC(C)n1cc2c(n1)[C@@H](Cc1cccc(-c3ccccc3)c1)[C@@H](NS(C)(=O)=O)CC2 (racemic) [Example 16, rac-N-[(6S,7S)-7-[([1,1′-biphenyl]-3-yl)methyl]-2-(propan-2-yl)-4,5,6,7-tetrahydro-2H-indazol-6-yl]methanesulfonamide]",84%

# Continued, values first:
row,"OX2R agonist activity (3 μM, %)",SMILES
1,62%,"Cc1nc2c(s1)CC[C@H](NS(C)(=O)=O)[C@@H]2Cc1cccc(-c2ccccc2)c1 (racemic) [Example 17, rac-N-{(4S,5S)-4-[([1,1′-biphenyl]-3-yl)methyl]-2-methyl-4,5,6,7-tetrahydro-1,3-benzothiazol-5-yl}methanesulfonamide]"
2,63%,"CS(=O)(=O)N[C@H]1CCc2cccnc2[C@H]1Cc1cccc(-c2ccccc2)c1 (racemic) [Example 22, rac-N-{(7S,8S)-8-[([1,1′-biphenyl]-3-yl)methyl]-5,6,7,8-tetrahydroquinolin-7-yl}methanesulfonamide]"
3,109%,"CC(C)c1cc2n(n1)[C@@H](Cc1cccc(-c3ccccc3)c1)[C@@H](NS(C)(=O)=O)CC2 (racemic) [Example 23, rac-N-[(6S,7S)-7-[([1,1′-biphenyl]-3-yl)methyl]-2-(propan-2-yl)-4,5,6,7-tetrahydropyrazolo[1,5-a]pyridin-6-yl]methanesulfonamide]"
4,102%,"CCc1cc2n(n1)[C@@H](COC1CCN(c3ncccn3)CC1)[C@@H](NS(C)(=O)=O)CC2 (racemic) [Example 28, rac-N-[(6S,7R)-2-ethyl-7-({[1-(pyrimidin-2-yl)piperidin-4-yl]oxy}methyl)-4,5,6,7-tetrahydropyrazolo[1,5-a]pyridin-6-yl]methanesulfonamide]"
5,80%,"CC(C)c1cc2n(n1)[C@@H](COC1CCN(c3ccccc3F)CC1)[C@@H](NS(C)(=O)=O)CC2 (racemic) [Example 29, rac-N-[(6S,7R)-7-({[1-(2-fluorophenyl)piperidin-4-yl]oxy}methyl)-2-(propan-2-yl)-4,5,6,7-tetrahydropyrazolo[1,5-a]pyridin-6-yl]methanesulfonamide]"
6,92%,"CCc1nn2c(c1Cl)CC[C@H](NS(C)(=O)=O)[C@@H]2COC1CCN(c2ncccn2)CC1 (racemic) [Example 32, rac-N-[(6S,7R)-3-chloro-2-ethyl-7-({[1-(pyrimidin-2-yl)piperidin-4-yl]oxy}methyl)-4,5,6,7-tetrahydropyrazolo[1,5-a]pyridin-6-yl]methanesulfonamide]"
7,105%,"CC(O)c1cc2n(n1)C(Cc1cccc(-c3ccccc3)c1)C(NS(C)(=O)=O)CC2 (racemic) [Example 36, N-[(6SR,7SR)-7-[([1,1′-biphenyl]-3-yl)methyl]-2-(1-hydroxyethyl)-4,5,6,7-tetrahydropyrazolo[1,5-a]pyridin-6-yl]methanesulfonamide]"
8,96%,"CCc1cc2n(n1)[C@@H](COC1CCN(c3ncc(F)c(OC)n3)CC1)[C@@H](NS(C)(=O)=O)CC2 (racemic) [Example 40, rac-N-[(6S,7R)-2-ethyl-7-({[1-(5-fluoro-4-methoxypyrimidin-2-yl)piperidin-4-yl]oxy}methyl)-4,5,6,7-tetrahydropyrazolo[1,5-a]pyridin-6-yl]methanesulfonamide]"
9,80%,"CCc1cc2n(n1)[C@@H](COC1CCN(c3ncc(F)c(C)n3)CC1)[C@@H](NS(C)(=O)=O)CC2 (racemic) [Example 41, rac-N-[(6S,7R)-2-ethyl-7-({[1-(5-fluoro-4-methylpyrimidin-2-yl)piperidin-4-yl]oxy}methyl)-4,5,6,7-tetrahydropyrazolo[1,5-a]pyridin-6-yl]methanesulfonamide]"

# Source: patent publication US12091410B2, “Heterocyclic compound” (Takeda Pharmaceutical Company Limited, priority 2018, dated 2024)
